Results from patent US20250326753A1, “DUAL CXCR4-BTK INHIBITORS” (X4 Pharmaceuticals, Inc., priority 2022, published 2025).
Like-named read-outs stand apart in the source and are kept apart here.

Assays:
[1] = system: 340 wild-type protein kinases; assay: PanQinase wild-type kinase panel, selectivity score; format: biochemical; conditions: 1 μM; share of kinases with residual activity <50%; 340 wild-type protein kinase assays
Procedure: Screening procedures were performed in accordance with the company's on-line protocol [accessed on-line Mar.
The selectivity score for a particular compound at a particular concentration was calculated by using the following formula: Selectivity Score=(count of data points <50%)/(total number of data points).

CXCR4 [2] = target: T1, CXCR4 (Homo sapiens, UniProt P61073); assay: Chemokine (CXCL12-AF647) binding inhibition assay, Jurkat cells expressing CXCR4; conditions: CXCL12-AF647 25 ng/ml, read-out: IC50 CXCL-12 binding Jurkat
T1 sequence (P61073 whole entry): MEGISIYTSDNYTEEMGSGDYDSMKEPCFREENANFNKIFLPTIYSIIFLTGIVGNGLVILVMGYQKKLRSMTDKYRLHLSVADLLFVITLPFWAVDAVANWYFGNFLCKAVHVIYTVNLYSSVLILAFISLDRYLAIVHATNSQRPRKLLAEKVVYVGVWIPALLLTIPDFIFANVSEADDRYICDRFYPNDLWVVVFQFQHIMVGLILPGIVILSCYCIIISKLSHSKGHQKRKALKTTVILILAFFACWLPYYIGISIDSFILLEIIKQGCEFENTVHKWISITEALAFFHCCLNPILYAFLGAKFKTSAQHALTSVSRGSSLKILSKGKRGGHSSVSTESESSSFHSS
Procedure: Jurkat cells expressing CXCR4 were washed once with assay buffer (Hanks' balanced salt solution with 20 mM HEPES buffer and 0.2% bovine serum albumin, pH 7.4) and then incubated for 15 min at room temperature with the test compounds diluted in assay buffer at dose-dependent concentrations. Subsequently, CXCL12-AF647 (25 ng/ml) was added to the compound-incubated cells. The cells were incubated for 30 min at room temperature. Thereafter, the cells were washed twice in assay buffer, fixed in 1% paraformaldehyde in PBS, and analyzed on the FL4 channel of a FACSCalibur flow cytometer equipped with a 635-nm red diode laser (Becton Dickinson, San Jose, CA, USA).
The percentages of inhibition of CXCL12-AF647 binding were calculated according to the formula: [1−((MFI−MFINC)/(MFIPC−MFINC))]×100 where MFI is the mean fluorescence intensity of the cells incubated with CXCL 12-AF647 in the presence of the inhibitor, MFINC is the mean fluorescence intensity measured in the negative control (i.e., autofluorescence of unlabeled cells), and MFIPC is the mean fluorescence intensity of the positive control (i.e., cells exposed to CXCL12-AF647 alone).

[3] = target: T2, BTK (Bruton tyrosine kinase) (Homo sapiens, UniProt Q06187); assay: BTK screening assay (33PanQinase Activity Assay, radiometric); format: biochemical; conditions: Inhibition of BTK, radiometric 33PanQinase Activity Assay, 3 μM ATP, 10 concentrations in singlicate, top 10 μM; read-out: 33PanQinase ® Radiometric IC50
T2 construct: GST or His (the text leaves open which); purchased Reaction Biology Europe GmbH Lot 012,11; host or cells: Sf9 insect cells or E. coli (not resolved)
T2 sequence (Q06187 whole entry): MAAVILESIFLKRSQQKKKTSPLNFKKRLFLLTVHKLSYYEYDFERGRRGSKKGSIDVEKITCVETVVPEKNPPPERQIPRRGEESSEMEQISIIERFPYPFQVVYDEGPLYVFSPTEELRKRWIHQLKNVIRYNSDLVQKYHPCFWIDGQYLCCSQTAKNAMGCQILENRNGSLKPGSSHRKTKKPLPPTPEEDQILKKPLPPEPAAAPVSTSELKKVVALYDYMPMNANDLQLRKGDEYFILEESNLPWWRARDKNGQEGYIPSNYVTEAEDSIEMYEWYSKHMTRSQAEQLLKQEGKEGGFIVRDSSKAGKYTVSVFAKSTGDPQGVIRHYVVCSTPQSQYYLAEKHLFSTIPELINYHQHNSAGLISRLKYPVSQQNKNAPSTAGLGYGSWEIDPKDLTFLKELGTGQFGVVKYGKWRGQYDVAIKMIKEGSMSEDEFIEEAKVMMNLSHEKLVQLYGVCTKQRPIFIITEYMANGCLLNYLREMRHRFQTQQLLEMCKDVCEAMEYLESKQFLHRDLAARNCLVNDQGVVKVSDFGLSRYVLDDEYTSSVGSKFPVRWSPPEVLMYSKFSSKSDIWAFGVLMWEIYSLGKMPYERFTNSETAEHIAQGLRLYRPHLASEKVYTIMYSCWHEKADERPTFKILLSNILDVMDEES

CXCR4 [4] = target: T1, CXCR4; assay: Intracellular CXCL-12-induced calcium mobilization assay (FLIPR), U87.CXCR4 cells; format: cell-based; parameters: expressed in transfected cells; host or cells: U87 (U87.CXCR4); conditions: CXCL-12 25-50 ng/ml, read-out: IC50 CXCL-12 Ca2+ flux U87.CXCR4+
Procedure: Intracellular calcium mobilization induced by chemokines or chemokine-derived peptides were evaluated using a calcium responsive fluorescent probe and a FLIPR system. The CXCR-4 transfected U87 cell line (U87.CXCR4) cells were seeded in gelatine-coated black-wall 96-well plates at 20,000 cells per well and incubated for 12 hours. Cells were then loaded with the fluorescent calcium probe Fluo-2 acetoxymethyl at 4 μM final concentration in assay buffer (Hanks' balanced salt solution with 20 mM HEPES buffer and 0.2% bovine serum albumin, pH 7.4) for 45 min at 37° C. The intracellular calcium mobilization induced by the CXCL-12 (25-50 ng/ml) was then measured at 37° C. by monitoring the fluorescence as a function of time in all the wells simultaneously using a fluorometric imaging plate reader (FLIPR Tetra, Molecular Devices).

BTK = BTK (Homo sapiens, UniProt Q06187); assay: BTK Kinase Enzyme System with ADP-Glo Kinase Assay; format: biochemical; parameters: Recombinant full-length human BTK was expressed by baculovirus in Sf9 insect cells; His (N); purchased Promega V9071; host or cells: Sf9 insect cells (baculovirus); conditions: 50 μM ATP
Sequence of BTK (Q06187 whole entry): as above
Procedure: Inhibition of BTK activity was evaluated using the BTK Kinase Enzyme System in combination with the ADP-Glo™ Kinase Assay Kit (V9071, Promega), according to manufacturer's instructions. Luminescence was detected on a PerkinElmer EnVision Multimode Plate Reader.
Recombinant full-length human BTK was expressed by baculovirus in Sf9 insect cells using an N-terminal His tag, MW ˜78 kDa. Substrate solution contained Poly (4:1 Glu, Tyr) Peptide Substrate. BTK Kinase Buffer consisted of: 40 mM Tris, pH 7.5; 20 mM MgCl2; 0.1 mg/ml BSA; 2 mM MnCl2; 50 μM DTT. ADP-Glo™ Reagents were thawed at ambient temperature; components of BTK Enzyme System, ADP and ATP were thawed on ice. Final assay conditions used 3 ng BTK, 50 μM ATP, and 0.2 mg/mL substrate. Compounds were tested at 11 dose points in duplicates, in 3-fold dilution with top concentration at 10 μM.
Assay performance was evaluated according to the reference compound Staurosporine, which was within 3-5 fold of published results and between different tests, with a Z′ value larger than 0.5, where applicable.

Ramos cell line = Ramos cell line viability assay (CellTiter-Glo, 72 hr); format: cell-based; conditions: Homo sapiens
Procedure: Inhibition of non-Hodgkin lymphoma B-cell proliferation by compounds of the present invention was evaluated in a Ramos cell line. Ramos is a B lymphocyte cell line that was derived from a patient with Burkitt's Lymphoma.
Cell viability was analyzed with the CellTiter-Glo® Luminescent Cell Viability Assay Kit (G7572, Promega), according to the manufacturer's instruction. Cells were seeded into a 96-well/384-well plate and then incubated in 5% CO2 at 37° C. overnight. Compounds were added to the cells, with 9-10 dose points in duplicates in 3-fold dilution from a top concentration of 30 μM, and incubated in 5% CO2 at 37° C. for 72 hr. The 96-well/384-well plate was equilibrated at room temperature for 30 min. 50 μl/25 μl of CellTiter-Glo® Reagent was added to each well and mixed for 2 min on an orbital shaker to induce cell lysis. The 96-well/384-well plate was incubated at room temperature for 10 min to stabilize luminescent signal. Luminescence was detected on a PerkinElmer EnVision Multimode Plate Reader as relative luminescence units (RLU).

U-87 MG = assay: Glioblastoma multiforme cell proliferation assay (CellTiter Glo), U-87 MG; format: cell-based; conditions: Homo sapiens, Table 6B
Procedure: (§1) Inhibition of glioblastoma multiforme cell proliferation by compounds of the present invention was evaluated in U-87 MG (ATCC; Cat. No. HTB-14; Lot. No. 5018014) and T98G (ATCC; Cat. No. CRL-1690; Lot. No. 58267513) cell lines. These are adherent cell lines isolated from glioblastoma multiforme/malignant glioma, which express both CXCR4 and BTK (see Zhou et al. 2002 and Yue et al. 2017).
(§2) Cell viability was analyzed with the CellTiter Glo Cell assay kit ([…], Cat. No. G7573, Lot. No. 0000474103), according to the manufacturer's instruction.
(§3) U-87 MG and T98G cells were seeded onto 384-well opaque-walled clear bottom plates (Corning, Cat. No. 3765, Lot. No. 34319047) in EMEM (Invitrogen, Cat. No. 11095-080; Lot. No. 2276656) supplemented with 10% FBS (Invitrogen, Cat. No. 10099-141C, Lot. No. 2145169CP), at a seeding density of 1000 or 1200 cells per well, respectively, and then incubated in 5% CO2 at 37° C. overnight.
(§4) Compounds were prepared as stock solutions of 30 mM in DMSO (Sigma, Cat. No. 276855-1L. Lot. No. SHBL5610). Compounds were added to the cells, with 10 dose points in duplicates, in 3-fold dilution from a top concentration of 30 μM (final DMSO concentration […]), and incubated in 5% CO2 at 37° C. for 96 hr.
(§5) The 384-well plates were equilibrated at room temperature for approximately 30 min. 25 μl of CellTiter-Glo® Reagent was added to each well and mixed for 10 min on an orbital shaker to induce cell lysis. The 384-well plates were incubated at room temperature for 10 min to stabilize luminescent signal. Luminescence was detected on a PerkinElmer EnVision Multimode Plate Reader (measurement time 0.1s) as relative luminescence units (RLU).

GBM-U251MG = assay: GBM cell proliferation, U251MG (cell-based cancer efficacy assays); conditions: Homo sapiens, U-251; Table 6B
T98G = assay: Glioblastoma multiforme cell proliferation assay (CellTiter Glo), T98G; format: cell-based; conditions: Homo sapiens, Table 6B
Procedure: as §1, §2, §3, §4, §5

[5] = class, read-out: Ramos viability IC50

SMILES	Selectivity Score [1]	IC50 (CXCR4 [2])	IC50 [3]	IC50 (CXCR4 [4])	IC50 (BTK)	IC50 (Ramos cell line; [5])	IC50 (Ramos cell line; read-out: IC50)	IC50 (U-87 MG; read-out: GBM-U87MG Cell Proliferation IC50)	IC50 (GBM-U251MG)	IC50 (T98G; read-out: GBM-T-98G Cell Proliferation IC50)	Emax (U-87 MG; read-out: GBM-U87MG Cell Proliferation Emax %)	Emax (GBM-U251MG)	Emax (T98G; read-out: GBM-T-98G Cell Proliferation Emax %)
Cc1cc(-c2ccnc(Nc3cnn(C)c3)n2)ccc1CNC(=O)N1CC(OC(C)C)C1 [BIIB-068, reference compound]	0.009												
Cc1cc(-c2ncnc3[nH]c(C(=O)NCCCCN4[C@@H](c5ncccc5C)CCC[C@H]4c4ncccc4C)cc23)ccc1CNC(=O)c1ccc(C(C)(C)C)cc1 [Compound I-6]		1 to 100 nM	1 to 100 nM	> 2500 nM	1 to 100 nM	1500 to 2000 nM	1550 nM						
Cc1cccnc1[C@H]1CCC[C@@H](c2ncccc2C)N1CCN1CCN(C(=O)c2ccc(-c3cc4c(-c5cccc(NC(=O)c6ccc(C(C)(C)C)cc6)c5C)ncnc4[nH]3)cc2)CC1 [Compound I-7]		100 to 1000 nM	1 to 100 nM	> 2500 nM	1 to 100 nM	1500 to 2000 nM	1620 nM						
Cc1cccnc1[C@H]1CCC[C@@H](c2ncccc2C)N1CCNC1CN(C(=O)c2ccc(-c3cc4c(-c5cccc(NC(=O)c6ccc(C(C)(C)C)cc6)c5C)ncnc4[nH]3)cc2)C1 [Compound I-8]		1 to 100 nM	1 to 100 nM	100 to 1000 nM	1 to 100 nM	≥ 4000 nM	11100 nM						

Now from value to compound, other results behind:

Selectivity Score [1]	IC50 (CXCR4 [2])	IC50 [3]	IC50 (CXCR4 [4])	IC50 (BTK)	IC50 (Ramos cell line; [5])	IC50 (Ramos cell line; read-out: IC50)	IC50 (U-87 MG; read-out: GBM-U87MG Cell Proliferation IC50)	IC50 (GBM-U251MG)	IC50 (T98G; read-out: GBM-T-98G Cell Proliferation IC50)	SMILES	Emax (U-87 MG; read-out: GBM-U87MG Cell Proliferation Emax %)	Emax (GBM-U251MG)	Emax (T98G; read-out: GBM-T-98G Cell Proliferation Emax %)
	1 to 100 nM	100 to 1000 nM	1 to 100 nM	100 to 1000 nM	2000 to 4000 nM	3540 nM				Cc1cccnc1[C@H]1CCC[C@@H](c2ncccc2C)N1CCNC1CN(C(=O)c2ccc(-c3cc4c(-c5cccc(NC(=O)c6ccccc6)c5C)ncnc4[nH]3)cc2)C1 [Compound I-9]			
	1 to 100 nM	1 to 100 nM	1000 to 2500 nM	1 to 100 nM	2000 to 4000 nM	2780 nM				Cc1cc(-c2ccnc(Nc3cnn(CCCN4[C@@H](c5ncccc5C)CCC[C@H]4c4ncccc4C)c3)n2)ccc1CNC(=O)N1CC(OC(C)C)C1 [Compound I-12, N-(4-(2-(1-(3-((2S,6R)-2,6-bis(3-methylpyridin-2-yl)piperidin-1-yl)propyl)-1H-pyrazol-4-ylamino)pyrimidin-4-yl)-2-methylbenzyl)-3-isopropoxyazetidine-1-carboxamide]			
							6470 nM	1670 nM	> 30000 nM	Cc1cccnc1[C@@H]1CCC[C@H](c2cn3c(N4CCN(C)CC4)cccc3n2)N1C [Compound I-19]	19%	6%	16%
